Measured values from US9290551B2, “Compounds for treating papilloma virus infection” (NanoVir, LLC, priority 2012, dated 2016).

test system: HPV 16; test: HPV 16 episome DNA levels in W12E cells by Q-PCR (Taqman); assay type: cell-based, Human papilloma virus; conditions: not given
Experimental: Cells maintaining HPV 16 DNA were cultured for 72 hours in the presence of cidofovir, interferon γ or polyamide. Viral DNA was then quantified using real-time PCR and compared to vehicle (DMSO)-treated control cultures.
Compounds were initially tested for effects on HPV 16 episome DNA levels in W12E cells by Q-PCR (Taqman™) over 3 concentration ranges (0.1, 1 and 10 μM). W12E cells are a cervical keratinocyte cell line originally identified by M. Stanley (Cambridge University), and later optimized and provided by P. Lambert (U. of Wisconsin). […] In all cases (initial tests and follow-up IC50 tests), dose testing was performed in triplicate. […] Furthermore, all experiments were conducted in triplicate, multiple times. The data were then combined, pseudo or effective IC50 values calculated, and variance determined to reveal the fit of the data to the model and its reliability.
Keratinocytes that maintain HPV 16 episomes were treated with increasing concentrations of polyamides.

Row | Compound | antiviral activity in this study
1 | CN(CCCN)CCCNC(=O)CCNC(=O)c1cc(NC(=O)c2cc(NC(=O)c3cc(NC(=O)c4cc(NC(=O)c5cc(NC(=O)[C@H](N)CCNC(=O)c6cc(NC(=O)c7cc(NC(=O)c8cc(NC(=O)c9cc(NC(=O)c%10nccn%10C)cn9C)cn8C)cn7C)cn6C)cn5C)cn4C)cn3C)cn2C)cn1C [Polyamide 1006, ImPPPPγNH2PPPPPβTa] | inactive

same assay, conditions: effective (pseudo) IC50; 50% reduction in HPV DNA relative to vehicle (0.1% DMSO); read-out: HPV-16 IC50

Row | Compound | IC50 [µM]
2 | CN(C)CCCNC(=O)CCNC(=O)c1cc(NC(=O)c2cc(NC(=O)c3cc(NC(=O)CCNC(=O)c4cc(NC(=O)c5cc(NC(=O)c6cc(NC(=O)CCCNC(=O)c7cc(NC(=O)c8cc(NC(=O)CCNC(=O)c9cc(NC(=O)c%10cc(NC(=O)c%11cc(NC(=O)c%12nccn%12C)cn%11C)cn%10C)cn9C)cn8C)cn7C)cn6C)cn5C)cn4C)cn3C)cn2C)cn1C [Polyamide 1002, ImPPPβPPγPPPβPPPβDp] | > 10
3 | CN(CCCN)CCCNC(=O)CCNC(=O)c1cc(NC(=O)c2cc(NC(=O)c3cc(NC(=O)c4cc(NC(=O)c5cc(NC(=O)CCCNC(=O)c6cc(NC(=O)c7cc(NC(=O)c8cc(NC(=O)c9cc(NC(=O)c%10nccn%10C)cn9C)cn8C)cn7C)cn6C)cn5C)cn4C)cn3C)cn2C)cn1C [Polyamide 1005, ImPPPPγPPPPPβTa] | > 10
4 | CN(CCCN)CCCNC(=O)CCNC(=O)c1cc(NC(=O)c2cc(NC(=O)c3cc(NC(=O)c4cc(NC(=O)c5cc(NC(=O)[C@H](N)CCNC(=O)c6cc(NC(=O)c7cc(NC(=O)c8cc(NC(=O)c9cc(NC(=O)c%10nccn%10C)cn9C)cn8C)cn7C)cn6C)cn5C)cn4C)cn3C)cn2C)cn1C [Polyamide 1006, ImPPPPγNH2PPPPPβTa] | > 10
5 | CN(C)CCCNC(=O)CCNC(=O)c1cc(NC(=O)c2cc(NC(=O)c3cc(NC(=O)c4cc(NC(=O)c5cc(NC(=O)CCCNC(=O)c6cc(NC(=O)c7cc(NC(=O)c8cc(NC(=O)c9cc(NC(=O)c%10nccn%10C)cn9C)cn8C)cn7C)cn6C)cn5C)cn4C)cn3C)cn2C)cn1C [Polyamide 1010, ImPPPPγPPPPPβDp] | > 10
6 | CN(C)CCCNC(=O)CCNC(=O)c1cc(NC(=O)c2cc(NC(=O)c3cc(NC(=O)c4cc(NC(=O)CCCNC(=O)c5nc(NC(=O)c6cc(NC(=O)c7cc(NC(=O)c8nccn8C)cn7C)cn6C)cn5C)cn4C)cn3C)cn2C)cn1C [Polyamide 1011, ImPPIγPPPPβDp] | > 10
7 | CN(C)CCCNC(=O)CCNC(=O)c1cc(NC(=O)c2cc(NC(=O)c3cc(NC(=O)c4nc(NC(=O)CCCNC(=O)c5cc(NC(=O)c6nc(NC(=O)c7nc(NC(=O)c8nccn8C)cn7C)cn6C)cn5C)cn4C)cn3C)cn2C)cn1C [Polyamide 1012, ImIIPγIPPPβDp] | > 10
8 | CN(C)CCCNC(=O)CCNC(=O)c1cc(NC(=O)c2nc(NC(=O)c3cc(NC(=O)c4cc(NC(=O)CCCNC(=O)c5cc(NC(=O)c6cc(NC(=O)c7cc(NC(=O)c8nccn8C)cn7C)cn6C)cn5C)cn4C)cn3C)cn2C)cn1C [Polyamide 1013, ImPPPγPPIPβDp] | > 10
9 | CN(C)CCCNC(=O)CCNC(=O)c1cc(NC(=O)c2cc(NC(=O)c3cc(NC(=O)c4nc(NC(=O)CCCNC(=O)c5cc(NC(=O)c6nc(NC(=O)CCNC(=O)c7nccn7C)cn6C)cn5C)cn4C)cn3C)cn2C)cn1C [Polyamide 1014, ImβIPγIPPPβDp] | > 10
10 | CN(C)CCCNC(=O)CCNC(=O)c1cc(NC(=O)c2cc(NC(=O)c3cc(NC(=O)c4cc(NC(=O)CCCNC(=O)c5cc(NC(=O)c6nc(NC(=O)CCNC(=O)c7nccn7C)cn6C)cn5C)cn4C)cn3C)cn2C)cn1C [Polyamide 1015, ImβIPγPPPPβDp] | > 10
11 | CN(C)CCCNC(=O)CCNC(=O)c1cc(NC(=O)c2cc(NC(=O)c3cc(NC(=O)c4cc(NC(=O)c5cc(NC(=O)CCCNC(=O)c6cc(NC(=O)c7nc(NC(=O)c8nc(NC(=O)CCNC(=O)c9nccn9C)cn8C)cn7C)cn6C)cn5C)cn4C)cn3C)cn2C)cn1C [Polyamide 1016, ImβIIPγPPPPPβDp] | > 10
12 | CN(C)CCCNC(=O)CCNC(=O)c1cc(NC(=O)c2nc(NC(=O)c3nc(NC(=O)c4cc(NC(=O)CCCNC(=O)c5nc(NC(=O)c6cc(NC(=O)c7cc(NC(=O)c8nccn8C)cn7C)cn6C)cn5C)cn4C)cn3C)cn2C)cn1C [Polyamide 1017, ImPPIγPIIPβDp] | > 10
13 | CN(C)CCCNC(=O)CCNC(=O)c1cc(NC(=O)c2nc(NC(=O)c3cc(NC(=O)c4cc(NC(=O)c5nc(NC(=O)CCCNC(=O)c6cc(NC(=O)c7cc(NC(=O)c8nc(NC(=O)CCNC(=O)c9nccn9C)cn8C)cn7C)cn6C)cn5C)cn4C)cn3C)cn2C)cn1C [Polyamide 1018, ImβIPPγIPPIPβDp] | > 10
14 | CN(C)CCCNC(=O)CCNC(=O)c1cc(NC(=O)c2cc(NC(=O)c3nc(NC(=O)c4cc(NC(=O)c5nc(NC(=O)CCCNC(=O)c6cc(NC(=O)c7nc(NC(=O)c8cc(NC(=O)c9cc(NC(=O)c%10nccn%10C)cn9C)cn8C)cn7C)cn6C)cn5C)cn4C)cn3C)cn2C)cn1C [Polyamide 1019, ImPPIPγIPIPPβDp] | > 10
15 | CN(C)CCCNC(=O)CCNC(=O)c1cc(NC(=O)c2cc(NC(=O)c3nc(NC(=O)c4cc(NC(=O)CCCNC(=O)c5nc(NC(=O)c6cc(NC(=O)c7nc(NC(=O)c8nccn8C)cn7C)cn6C)cn5C)cn4C)cn3C)cn2C)cn1C [Polyamide 1021, ImIPIγPIPPβDp] | > 10
16 | CN(C)CCCNC(=O)CCNC(=O)CCNC(=O)c1cc(NC(=O)c2cc(NC(=O)c3cc(NC(=O)CCNC(=O)c4cc(NC(=O)c5cc(NC(=O)c6cc(NC(=O)CCCNC(=O)c7cc(NC(=O)c8cc(NC(=O)c9cc(NC(=O)CCNC(=O)c%10cc(NC(=O)c%11cc(NC(=O)c%12cc(NC(=O)c%13nccn%13C)cn%12C)cn%11C)cn%10C)cn9C)cn8C)cn7C)cn6C)cn5C)cn4C)cn3C)cn2C)cn1C [Polyamide 1025, ImPPPβPPPγPPPβPPPββDp] | > 10
17 | CN(C)CCCNC(=O)CCNC(=O)c1cc(NC(=O)c2cc(NC(=O)c3cc(NC(=O)c4cc(NC=O)cn4C)cn3C)cn2C)cn1C [Polyamide 1038, OHC-PPPPβDp] | > 10
18 | CN(C)CCCNC(=O)CCNC(=O)c1cc(NC(=O)c2cc(NC(=O)c3cc(NC(=O)c4cc(NC(=O)c5cc(NC(=O)c6cc(NC=O)cn6C)cn5C)cn4C)cn3C)cn2C)cn1C [Polyamide 1039, OHC-PPPPPPβDp] | > 10
19 | CN(C)CCCNC(=O)CCNC(=O)c1cc(NC(=O)c2cc(NC(=O)c3cc(NC(=O)CCNC(=O)c4cc(NC(=O)c5cc(NC(=O)c6cc(NC(=O)CCNC(=O)c7cc(NC(=O)CCNC(=O)CCCNC(=O)c8nc(NC(=O)c9cc(NC(=O)c%10cc(NC(=O)CCNC(=O)c%11cc(NC(=O)c%12nc(NC(=O)c%13cc(NC(=O)CCNC(=O)c%14cc(NC(=O)c%15cc(NC(=O)c%16nccn%16C)cn%15C)cn%14C)cn%13C)cn%12C)cn%11C)cn%10C)cn9C)cn8C)cn7C)cn6C)cn5C)cn4C)cn3C)cn2C)cn1C [Polyamide 1041, ImPPβPIPβPPIγβPβPPPβPPPβDp] | > 10
20 | CN(C)CCCNC(=O)c1cc(NC(=O)c2cc(NC(=O)CCNC(=O)c3cc(NC(=O)c4cc(NC(=O)c5cc(NC(=O)CCNC(=O)c6cc(NC(=O)c7cc(NC(=O)CCCNC(=O)CCNC(=O)c8cc(NC(=O)c9cc(NC(=O)CCNC(=O)c%10cc(NC(=O)c%11cc(NC(=O)c%12cc(NC(=O)c%13nccn%13C)cn%12C)cn%11C)cn%10C)cn9C)cn8C)cn7C)cn6C)cn5C)cn4C)cn3C)cn2C)cn1C [Polyamide 1056, ImPPPβPPβγPPβPPPβPPDp] | > 10
21 | ImPPPPγPPPPPβTa-BOFLX [Polyamide 1008] | > 10
22 | ImPPPPγPPPPPβTa-FITC [Polyamide 1007] | > 10
